Source: the METLIN SMRT retention time set (Domingo-Almenara et al. 2019)

Test: gradient 5% acetonitrile 3 min, to 50% in 2 min, to 85% in 15 min, held 3 min, 100 µL/min
Conditions: column: Zorbax Extend-C18 2.1 x 50 mm; eluents: water / acetonitrile, 0.1% formic acid
Summary of the method: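 The system's dead and dwell volumes were 40 μL and 900 μL, with a Zorbax Extend-C18 column (2.1 × 50 mm, 1.8 μm) run at 100 μL/min in water and acetonitrile containing 0.1% formic acid each. Pure standards were analyzed in mixtures of ~100 molecules by HPLC–quadrupole time-of-flight mass spectrometry in positive and negative ionization mode. Retention time was assigned from computationally picked, manually inspected adduct peaks.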

RP-LC retention time [s]	SMILES
572	O=C(NCCn1ncccc1=O)c1ccc(S(=O)(=O)N2CCOCC2)cc1
720	O=C(Cn1nc2c(cc1=O)CCCC2)Nc1ccc(N2CCCCS2(=O)=O)cc1
565	O=C([C@@H]1C[C@H](Oc2cccnc2)CN1C(=O)C1CCC1)N1CCCC1
989	Cn1cc(-c2nc(C(=O)NCc3ccccc3Cl)cs2)c2cccnc21
776	CSc1cccc(NC(=O)N2CCN(Cc3nc4cc(C)ccc4o3)CC2)c1
1080	Cc1ccccc1Nc1c(-c2cccc(Cl)c2)nc2ccc(Cl)cn12
617	CCc1ccc(CNC(=O)C2Cc3cc(S(=O)(=O)N(CC)CC)ccc3N2C(C)=O)cc1 (centres undefined)
689	COc1ccc(CN2C[C@@H]3C(=O)N(Cc4ccc5c(c4)OCO5)C(=O)[C@@H]3C2)cc1
888	O=C(NCc1ccco1)c1ccccc1-c1nc(-c2ccccc2)no1
618	COCCCNC(=O)Cc1c(C)n(C)c2nc(-c3ccccc3)nn2c1=O
744	O=C(Nc1cccn2cnnc12)c1ccc(C(F)(F)F)cc1
766	CCOCc1nc(C2CCCN(C(=O)NC3CCCC3)C2)no1 (centres undefined)
883	CCCCS(=O)(=O)NC1CCCC(OC(=O)Nc2ccc(F)cc2)C1 (centres undefined)
667	c1ccc(-c2nc(-c3ccncc3)no2)c(OC2CCN(C3CCCC3)C2)c1 (centres undefined)
741	COc1ccc(OCC(=O)Nc2c(C(=O)N3CCN(c4ccccn4)CC3)oc3ccccc23)cc1
788	CCCCNC(=O)C1CCN(c2nc3ccc(-c4cncnc4)nc3s2)CC1
829	CCOc1ccc2nc(NC(=O)C3CCN(S(=O)(=O)c4cn(C(C)C)cn4)CC3)sc2c1
1000	COc1ccc(-c2nc(Cc3noc(Cc4cccc(F)c4)n3)c(C)o2)cc1
1100	Cc1ccc(C(=O)NCC2CCCN(S(=O)(=O)c3c(C)c(C)cc(C)c3C)C2)cc1 (centres undefined)
753	CC1=C(c2ccccc2)S(=O)(=O)N=C1N1CCC(NC(=O)C2CCC2)CC1
1000	Clc1ccc(C2Cn3nnc(-c4nc(-c5ccncc5)no4)c3CO2)cc1 (centres undefined)
672	COc1cccc2cc(-c3ccc(OCC(=O)N4CCC(C(N)=O)CC4)cc3)c(=O)oc12
801	CCOc1cc(-c2ccc(F)cc2)nc2ccc(NS(=O)(=O)c3ccc(C#N)cc3)cc12

RP-LC retention time [s]	SMILES
1100	COC1CN(c2ccc(C)cc2)C12CCN(C(=O)C1(c3ccccc3)CC1)CC2 (centres undefined)
715	Cc1ccc(S(=O)(=O)N2CCC(N3CC(F)(F)C[C@H]3CN(C)C)CC2)c(C)c1
646	COc1ccccc1N1CCN(C(=O)c2cn(-c3ccc(NC(C)=O)cn3)cn2)CC1
606	CCC1CN(C(=O)N2CCC(C(=O)NCCN3CCN(C)CC3)CC2)c2ccccc2O1 (centres undefined)
996	Cc1csc(-c2ccc(N3CCN(C(=O)c4cc(F)ccc4F)CC3)nc2)n1
859	Cc1nn2c(CNS(=O)(=O)c3ccc(F)cc3)c(-c3ccccc3)nc2s1
598	Cc1cccc2sc(N(CCN(C)C)C(=O)c3ccc(S(=O)(=O)N(C)C)cc3)nc12
966	Cc1ccc(Nc2nc(C(=O)NC3CCCCCC3)nc3ccccc23)cc1
973	COc1ccc(Cl)cc1NS(=O)(=O)c1cc2c(s1)CCN(C(=O)C1CCC1)C2
657	COCCN1C(=O)CCC2(CNC(=O)c3cnccn3)CCCC=C12 (centres undefined)
605	CCOC(=O)C1=C(CN2CCC(N3CCCCC3)CC2)NC(=O)NC1c1ccc(OC(C)C)cc1 (centres undefined)
750	COc1ccc(CNC(=O)Nc2cc3c(cc2N2CCCC2)n(C)c(=O)n3C)cc1
834	CCOc1ccccc1NC(=O)N1CCC2(CC1)NC(=O)c1ccc(Cl)cc1N2
794	COc1ccc(-c2noc(-c3cc(N4CCN(C)CC4)nc4ccccc34)n2)cc1
632	COc1cccc(NS(=O)(=O)c2cc3n(c2)CCCNC3=O)c1
718	O=C1C(N2CCCN(S(=O)(=O)c3cccc(Cl)c3)CC2)CCN1Cc1ccccc1 (centres undefined)
1110	CC1CCN(c2nn(CC(=O)Nc3ccccc3)c(=O)c3ccccc23)CC1
905	O=C(CSc1ncccn1)Nc1nc(-c2ccccc2)c(-c2ccccc2)o1
774	CC(CCc1ccccc1)NC(=O)CCc1c(-c2ccc(Cl)cc2)nc2ccccn12 (centres undefined)
1060	COc1cccc(N2CCN(S(=O)(=O)c3cc(-c4nnc(C5CCC5)o4)co3)CC2)c1
749	COc1cccc(C(=O)NCCCn2cccc2)c1
995	CCCCn1cc(S(=O)(=O)Nc2cc(F)ccc2C)c2cccnc21
701	CC(C)CNC(=O)c1nc2cccnc2n(C)c1=O

RP-LC retention time [s]	SMILES
842	CCn1cc(C)c(C(=O)O)c1CC(=O)NCCc1ccc(C)cc1
786	CC(C)CCNC(=O)C1(C)CCC(=O)N1CCc1c[nH]c2ccccc12 (centres undefined)
859	O=C(Cc1cccs1)N1CCC2(CC1)N=C(c1ccc(Cl)cc1)NO2
747	Cc1cc(N2CCN(C(=O)Nc3ccc(C)c(Cl)c3)CC2)nc(N2CCCC2)n1
562	CC(C)N1CCN(C(=O)c2ccc(-c3ccnc(N4CCCC4)n3)cc2)CC1
801	COc1ccc(C(=O)Nc2nc(-c3ccc4c(c3)NC(=O)CO4)cs2)cc1OC
693	COc1ccccc1NC(=O)c1[nH]c2cc(C)sc2c1CN1CCOCC1
797	COc1ccc(NC(=O)Cn2c(=O)c3cc(-c4ccco4)nn3c3ncccc32)c(OC)c1
942	CCC(C)Nc1nc(N(C)C)nc(-n2cnc(SC)n2)n1 (centres undefined)
1010	CN1C(=O)COc2ccc(-c3csc(NC(=O)COc4ccc(Cl)cc4)n3)cc21
902	Cc1nc(-c2ccc(-c3noc(CNC(=O)c4ccccc4)n3)cc2)cs1
753	CCN1C(=O)Cc2ccccc2C1C(=O)NCc1cc(F)ccc1F (centres undefined)
723	CS(=O)(=O)c1ccc([C@@H](O)[C@@H](CF)NC(=O)C(Cl)Cl)cc1
758	CCCN1C(=O)CN(S(C)(=O)=O)CC1(C)C(=O)NCc1ccc(Cl)cc1 (centres undefined)
667	Cc1noc(CNC(=O)CN(C)c2nc3c(F)cccc3s2)n1
638	Cn1nc(-c2ccncc2)nc1C1CN(S(=O)(=O)c2cc(F)ccc2F)C1
860	Cc1ccc(Cl)cc1NC(=O)Cn1ncc2c(c1=O)N(CC1CC1)C(=O)CS2
651	O=C(NC1CCCCCCC1)C1CCN(C(=O)c2cc(-c3cccnc3)n[nH]2)CC1
576	CCCS(=O)(=O)N1CCC(Cc2nc(-c3ccncc3)n[nH]2)C1 (centres undefined)
1270	CCCN1C(=O)COc2ccc(-c3noc(/C=C/c4ccccc4OC)n3)cc21
765	CCC(=O)NCCc1csc(C2CCN(C(=O)CC3CCCCC3)CC2)n1
886	CCCC(CCC)C(=O)NCCc1c[nH]c2cc(OC)ccc12
679	NC(=O)c1cc(-c2cccc(Cl)c2)n[nH]1

RP-LC retention time [s]	SMILES
663	Cc1ccc(NC(=O)N2CCC(n3cnnc3C3CC3)C2)c(Cl)c1 (centres undefined)
608	Cc1cncn(CC(=O)Nc2ccccc2Cl)c1=O
798	COc1ccc(Cl)cc1NC(=O)N1CCN(c2cc(C)nc(Nc3ccc(C)cc3)n2)CC1
835	CCc1ccc(NC(=O)C2CCc3nc(N4CCOCC4)ncc3C2)cc1 (centres undefined)
546	CCOC(CCNC(=O)CCC(=O)Nc1ccc2nc(N3CCN(C)CC3)cc(C)c2c1)OCC
588	O=C(Cn1cncn1)N1CCC(c2nnc(C(F)(F)F)o2)CC1
651	CCOC(=O)Nc1ccc2nc(-c3cscn3)[nH]c2c1
790	Cc1noc(C)c1S(=O)(=O)N1CCC(N2CC3(CCCCC3)C2c2ccccc2)CC1 (centres undefined)
664	Cc1ccc2oc(N3CCCN(C(=O)c4ccc(-c5noc(C(C)C)n5)cc4)CC3)nc2n1
857	CCCCOC(=O)c1ccc(NC(=O)c2c(OC)cc(=O)n3c2CCCC3)cc1
936	Cc1ccc(S(=O)(=O)N2CCC(OCc3noc(C4CCCO4)n3)CC2)cc1F (centres undefined)
643	Cc1nn(C)c(C)c1S(=O)(=O)NCCc1noc(-c2cccnc2)n1
987	CCc1nc2cc(-c3noc(C4CC(=O)N(c5ccc(C)cc5)C4)n3)ccc2o1 (centres undefined)
666	CCOC(=O)c1cccc(Nc2c(C(=O)N3CCC(C)CC3)cnc3nc(C)ccc23)c1
552	COc1ccc(C)c2sc(NCCCn3ccnc3)nc12
700	O=S(=O)(Cc1ccc(F)cc1)NCC1(c2ccc(F)cc2)CC1
784	Cc1nc2c(NS(=O)(=O)c3ccc(F)c(C)c3)cccn2n1
906	COc1cc(OC)c(NC(=O)Cn2cc3c(n2)CCCC3)cc1Cl
844	COc1ccc(-c2noc(CN3N=NC4C(=O)N(c5ccc(C)c(F)c5)C(=O)C43)n2)c(OC)c1 (centres undefined)
839	O=C(c1ccc2c(c1)OCCO2)N1CCCCC1
